{"source": "patent EP0338372A2", "about": "“Solubilized pro-drugs” (AMERICAN CYANAMID COMPANY, priority 1988, dated 1989)", "key": {"[1]": {"tested_on": "lymphocytic leukemia P388", "assay": "Lymphocytic leukemia P388 test", "type": "in vivo, BDF1 mice"}, "[2]": {"tested_on": "melanotic melanoma B16", "assay": "Melanotic Melanoma B16 test", "type": "in vivo, BDF1 mice"}, "[3]": {"details": "Dose 12.5 mg/kg intraperitoneally on days 1, 5 and 9"}, "[4]": {"details": "Dose 25 mg/kg intraperitoneally on days 1, 5 and 9"}, "[5]": {"details": "Dose 50 mg/kg intraperitoneally on days 1, 5 and 9"}, "[6]": {"details": "Dose 100 mg/kg intraperitoneally on days 1, 5 and 9"}, "[7]": {"details": "Dose 200 mg/kg intraperitoneally on days 1, 5 and 9"}, "[8]": {"details": "Dose 0.78 mg/kg intraperitoneally on days 1, 5 and 9"}, "[9]": {"details": "Dose 1.56 mg/kg intraperitoneally on days 1, 5 and 9"}, "[10]": {"details": "Dose 3.12 mg/kg intraperitoneally on days 1, 5 and 9"}, "[11]": {"details": "Dose 6.25 mg/kg intraperitoneally on days 1, 5 and 9"}}}
{"molecule": "CCCC(=O)N1CCN=C1NN=Cc1c2ccccc2c(C=NNC2=NCCN2C(=O)CCC)c2ccccc12", "note": "[2,2-(9,10-Anthracenediylbis(methylidyne-1-hydrazinyl-2-ylidene)]bis4,5-dihydro-1-(1-oxobutyl)-1H-imidazole]]", "values": [{"measurement": "Median Survival", "setting": "[1]; [3]", "value": 12.5, "unit": "days"}, {"measurement": "T/C x 100 %", "setting": "[1]; [3]", "value": 125, "unit": "%"}, {"measurement": "Median Survival", "setting": "[1]; [4]", "value": 12.5, "unit": "days"}, {"measurement": "T/C x 100 %", "setting": "[1]; [4]", "value": 125, "unit": "%"}, {"measurement": "Median Survival", "setting": "[1]; [5]", "value": 14, "unit": "days"}, {"measurement": "T/C x 100 %", "setting": "[1]; [5]", "value": 140, "unit": "%"}, {"measurement": "Median Survival", "setting": "[1]; [6]", "value": 14.5, "unit": "days"}, {"measurement": "T/C x 100 %", "setting": "[1]; [6]", "value": 145, "unit": "%"}, {"measurement": "Median Survival", "setting": "[1]; [7]", "value": 15.5, "unit": "days"}, {"measurement": "T/C x 100 %", "setting": "[1]; [7]", "value": 155, "unit": "%"}, {"measurement": "Median Survival", "setting": "[2]; [4]", "value": 26, "unit": "days"}, {"measurement": "T/C x 100 %", "setting": "[2]; [4]", "value": 118, "unit": "%"}, {"measurement": "Median Survival", "setting": "[2]; [5]", "value": 24.5, "unit": "days"}, {"measurement": "T/C x 100 %", "setting": "[2]; [5]", "value": 111, "unit": "%"}, {"measurement": "Median Survival", "setting": "[2]; [6]", "value": 28.5, "unit": "days"}, {"measurement": "T/C x 100 %", "setting": "[2]; [6]", "value": 130, "unit": "%"}, {"measurement": "Median Survival", "setting": "[2]; [7]", "value": 27.5, "unit": "days"}, {"measurement": "T/C x 100 %", "setting": "[2]; [7]", "value": 125, "unit": "%"}]}
{"molecule": "O=C(c1ccccc1)N1CCN=C1N(N=Cc1c2ccccc2c(C=NN(C(=O)c2ccccc2)C2=NCCN2C(=O)c2ccccc2)c2ccccc12)C(=O)c1ccccc1", "note": "[2,2-(9,14-Anthracenediyldimethylidyne)bis[1-(1-benzoyl-4,5-dihydro-1H-imidazol-2-yl)hydrazide] of Benzoic Acid]", "values": [{"measurement": "Median Survival", "setting": "[1]; [8]", "value": 15.5, "unit": "days"}, {"measurement": "T/C x 100 %", "setting": "[1]; [8]", "value": 155, "unit": "%"}, {"measurement": "Median Survival", "setting": "[1]; [9]", "value": 17.5, "unit": "days"}, {"measurement": "T/C x 100 %", "setting": "[1]; [9]", "value": 175, "unit": "%"}, {"measurement": "Median Survival", "setting": "[1]; [10]", "value": 17, "unit": "days"}, {"measurement": "T/C x 100 %", "setting": "[1]; [10]", "value": 170, "unit": "%"}, {"measurement": "Median Survival", "setting": "[1]; [11]", "value": 18, "unit": "days"}, {"measurement": "T/C x 100 %", "setting": "[1]; [11]", "value": 180, "unit": "%"}, {"measurement": "Median Survival", "setting": "[1]; [3]", "value": 19, "unit": "days"}, {"measurement": "T/C x 100 %", "setting": "[1]; [3]", "value": 190, "unit": "%"}, {"measurement": "Median Survival", "setting": "[1]; [4]", "value": 19.5, "unit": "days"}, {"measurement": "T/C x 100 %", "setting": "[1]; [4]", "value": 195, "unit": "%"}, {"measurement": "Median Survival", "setting": "[1]; [5]", "value": 20, "unit": "days"}, {"measurement": "T/C x 100 %", "setting": "[1]; [5]", "value": 200, "unit": "%"}, {"measurement": "Median Survival", "setting": "[1]; [6]", "value": 23, "unit": "days"}, {"measurement": "T/C x 100 %", "setting": "[1]; [6]", "value": 320, "unit": "%"}, {"measurement": "Median Survival", "setting": "[1]; [7]", "value": 32, "unit": "days"}, {"measurement": "T/C x 100 %", "setting": "[1]; [7]", "value": 320, "unit": "%"}, {"measurement": "Median Survival", "setting": "[2]; [3]", "value": 29.5, "unit": "days"}, {"measurement": "T/C x 100 %", "setting": "[2]; [3]", "value": 134, "unit": "%"}, {"measurement": "Median Survival", "setting": "[2]; [4]", "value": 32, "unit": "days"}, {"measurement": "T/C x 100 %", "setting": "[2]; [4]", "value": 145, "unit": "%"}, {"measurement": "Median Survival", "setting": "[2]; [5]", "value": 40, "unit": "days"}, {"measurement": "T/C x 100 %", "setting": "[2]; [5]", "value": 182, "unit": "%"}, {"measurement": "Median Survival", "setting": "[2]; [6]", "value": 57.5, "unit": "days"}, {"measurement": "T/C x 100 %", "setting": "[2]; [6]", "value": 261, "unit": "%"}, {"measurement": "Median Survival", "setting": "[2]; [7]", "value": 50, "unit": "days"}, {"measurement": "T/C x 100 %", "setting": "[2]; [7]", "value": 227, "unit": "%"}]}
{"molecule": "[2-[[[10-[((4,5-Dihydro-1H-imidazol-2-yl)ethylhydrazono]methyl]-9-anthracenyl]methylene] hydrazino]-4,5-dihydro-1H-imidazol-1-yl]phosphonic Acid, Hydroiodide", "values": [{"measurement": "Median Survival", "setting": "[1]; mouse, in vivo, ip, 0.4 mg/kg", "value": 18, "unit": "days"}, {"measurement": "T/C x 100 %", "setting": "[1]; mouse, in vivo, ip, 0.4 mg/kg", "value": 164, "unit": "%"}, {"measurement": "Median Survival", "setting": "[1]; mouse, in vivo, ip, 0.8 mg/kg", "value": 21.5, "unit": "days"}, {"measurement": "T/C x 100 %", "setting": "[1]; mouse, in vivo, ip, 0.8 mg/kg", "value": 195, "unit": "%"}, {"measurement": "Median Survival", "setting": "[1]; mouse, in vivo, ip, 1.6 mg/kg", "value": 18, "unit": "days"}, {"measurement": "T/C x 100 %", "setting": "[1]; mouse, in vivo, ip, 1.6 mg/kg", "value": 164, "unit": "%"}, {"measurement": "Median Survival", "setting": "[1]; mouse, in vivo, ip, 3.2 mg/kg", "value": 22.5, "unit": "days"}, {"measurement": "T/C x 100 %", "setting": "[1]; mouse, in vivo, ip, 3.2 mg/kg", "value": 205, "unit": "%"}, {"measurement": "Median Survival", "setting": "[1]; mouse, in vivo, ip, 6.3 mg/kg", "value": 24, "unit": "days"}, {"measurement": "T/C x 100 %", "setting": "[1]; mouse, in vivo, ip, 6.3 mg/kg", "value": 218, "unit": "%"}, {"measurement": "Median Survival", "setting": "[1]; mouse, in vivo, ip, 12.5 mg/kg", "value": 25, "unit": "days"}, {"measurement": "T/C x 100 %", "setting": "[1]; mouse, in vivo, ip, 12.5 mg/kg", "value": 227, "unit": "%"}, {"measurement": "Median Survival", "setting": "[1]; mouse, in vivo, ip, 25 mg/kg", "value": 25, "unit": "days"}, {"measurement": "T/C x 100 %", "setting": "[1]; mouse, in vivo, ip, 25 mg/kg", "value": 227, "unit": "%"}, {"measurement": "Median Survival", "setting": "[1]; mouse, in vivo, ip, 50 mg/kg", "value": 25.5, "unit": "days"}, {"measurement": "T/C x 100 %", "setting": "[1]; mouse, in vivo, ip, 50 mg/kg", "value": 232, "unit": "%"}]}
{"molecule": "[9,10-Anthracenedlylbis(methylidyne-1-hydrazinyl-2-ylidene (4,5-dihydro-1H-imidazol-2,1-diyl)]]-phosphonic Acid Hydroiodide", "values": [{"measurement": "Median Survival", "setting": "[1]; mouse, in vivo, ip, 0.4 mg/kg", "value": 21, "unit": "days"}, {"measurement": "T/C x 100 %", "setting": "[1]; mouse, in vivo, ip, 0.4 mg/kg", "value": 191, "unit": "%"}, {"measurement": "Median Survival", "setting": "[1]; mouse, in vivo, ip, 0.8 mg/kg", "value": 19, "unit": "days"}, {"measurement": "T/C x 100 %", "setting": "[1]; mouse, in vivo, ip, 0.8 mg/kg", "value": 173, "unit": "%"}, {"measurement": "Median Survival", "setting": "[1]; mouse, in vivo, ip, 1.6 mg/kg", "value": 24.5, "unit": "days"}, {"measurement": "T/C x 100 %", "setting": "[1]; mouse, in vivo, ip, 1.6 mg/kg", "value": 223, "unit": "%"}, {"measurement": "Median Survival", "setting": "[1]; mouse, in vivo, ip, 3.2 mg/kg", "value": 24, "unit": "days"}, {"measurement": "T/C x 100 %", "setting": "[1]; mouse, in vivo, ip, 3.2 mg/kg", "value": 218, "unit": "%"}, {"measurement": "Median Survival", "setting": "[1]; mouse, in vivo, ip, 6.3 mg/kg", "value": 22, "unit": "days"}, {"measurement": "T/C x 100 %", "setting": "[1]; mouse, in vivo, ip, 6.3 mg/kg", "value": 200, "unit": "%"}, {"measurement": "Median Survival", "setting": "[1]; mouse, in vivo, ip, 12.5 mg/kg", "value": 53.5, "unit": "days"}, {"measurement": "T/C x 100 %", "setting": "[1]; mouse, in vivo, ip, 12.5 mg/kg", "value": 486, "unit": "%"}, {"measurement": "Median Survival", "setting": "[1]; mouse, in vivo, ip, 25 mg/kg", "value": ">60", "unit": "days"}, {"measurement": "T/C x 100 %", "setting": "[1]; mouse, in vivo, ip, 25 mg/kg", "value": ">545", "unit": "%"}]}
